PubChem BioAssay (NCI)
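Results reflect a 48-hour exposure of cells in 96-well plates to compound at five concentrations. Abbreviation: GI50, concentration required for 50% inhibition of growth. TGI: total growth inhibition.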

Assays:
Test in all cases: growth of human tumour cells (NCI), 48 h
KM12 colon = tested on: KM12 colon
OVCAR-8 ovarian = tested on: OVCAR-8 ovarian
SNB-19 CNS = tested on: SNB-19 CNS
SK-MEL-2 melanoma = tested on: SK-MEL-2 melanoma
NCI-H522 lung = tested on: NCI-H522 lung
UACC-257 melanoma = tested on: UACC-257 melanoma
SK-MEL-5 melanoma = tested on: SK-MEL-5 melanoma
NCI-H226 lung = tested on: NCI-H226 lung
RPMI-8226 leukemia = tested on: RPMI-8226 leukemia
DU-145 prostate = tested on: DU-145 prostate

CC1(C)O[C@H]2[C@H](O)C[C@](O)(CO)C[C@H]2O1
TGI (KM12 colon): > 100 µM | TGI (OVCAR-8 ovarian): > 100 µM | TGI (SNB-19 CNS): > 100 µM | TGI (SK-MEL-2 melanoma): > 100 µM | TGI (NCI-H522 lung): > 100 µM | TGI (UACC-257 melanoma): > 100 µM | TGI (SK-MEL-5 melanoma): > 100 µM | TGI (NCI-H226 lung): > 100 µM | TGI (RPMI-8226 leukemia): > 100 µM

Clc1nc(Cl)c2ncn(CC3(Cn4cnc5c(Cl)nc(Cl)nc54)COC3)c2n1
GI50 (KM12 colon): 0.362 µM | TGI (KM12 colon): 1.01 µM | GI50 (OVCAR-8 ovarian): 0.256 µM | TGI (OVCAR-8 ovarian): 0.532 µM | GI50 (SNB-19 CNS): 0.332 µM | TGI (SNB-19 CNS): 0.803 µM | GI50 (NCI-H522 lung): 0.966 µM | TGI (NCI-H522 lung): 3.07 µM | GI50 (UACC-257 melanoma): 0.197 µM | TGI (UACC-257 melanoma): 0.427 µM | GI50 (SK-MEL-5 melanoma): 0.259 µM | TGI (SK-MEL-5 melanoma): 0.855 µM | GI50 (DU-145 prostate): 0.183 µM | TGI (DU-145 prostate): 0.335 µM | GI50 (NCI-H226 lung): 1.77 µM | TGI (NCI-H226 lung): 3.68 µM | GI50 (RPMI-8226 leukemia): 1.86 µM | TGI (RPMI-8226 leukemia): 59.1 µM

CC1=C(c2ccccc2)C(c2ccccc2)=C(c2ccccc2)C2(c3ccccc3)C(=O)C(C)CN12 (configuration not stated)
TGI (KM12 colon): > 100 µM | TGI (OVCAR-8 ovarian): 59.2 µM | TGI (SNB-19 CNS): > 100 µM | TGI (SK-MEL-2 melanoma): > 100 µM | TGI (NCI-H522 lung): 72.4 µM | TGI (UACC-257 melanoma): > 100 µM | TGI (SK-MEL-5 melanoma): > 100 µM | TGI (NCI-H226 lung): 84.8 µM | TGI (RPMI-8226 leukemia): > 100 µM

O=C1N(C2CCCCC2)CC12CCCCC2
TGI (OVCAR-8 ovarian): > 100 µM | TGI (SNB-19 CNS): > 100 µM | TGI (SK-MEL-2 melanoma): > 100 µM | TGI (NCI-H522 lung): > 100 µM | TGI (SK-MEL-5 melanoma): > 100 µM | TGI (NCI-H226 lung): > 100 µM | TGI (RPMI-8226 leukemia): > 100 µM

O=C(O)C1=C(O)C(C(=O)O)C23CCCCCCCCCCC12C(C(=O)O)C(O)=C3C(=O)O (configuration not stated)
TGI (KM12 colon): > 100 µM | TGI (OVCAR-8 ovarian): > 100 µM | TGI (SNB-19 CNS): > 100 µM | TGI (SK-MEL-2 melanoma): > 100 µM | TGI (NCI-H522 lung): > 100 µM | TGI (UACC-257 melanoma): > 100 µM | TGI (SK-MEL-5 melanoma): > 100 µM | TGI (NCI-H226 lung): > 100 µM | TGI (RPMI-8226 leukemia): > 100 µM

C=CCNC(=O)N(CCCCC(NC(C)=O)C(=O)NCc1ccccc1)Cc1ccccc1 (configuration not stated)
TGI (KM12 colon): > 100 µM | TGI (OVCAR-8 ovarian): > 100 µM | TGI (SNB-19 CNS): > 100 µM | TGI (SK-MEL-2 melanoma): > 100 µM | TGI (NCI-H522 lung): > 100 µM | TGI (UACC-257 melanoma): > 100 µM | TGI (SK-MEL-5 melanoma): > 100 µM | TGI (NCI-H226 lung): > 100 µM | TGI (RPMI-8226 leukemia): > 100 µM

COc1cc(Br)c(C=Nc2cccc3cc(OC)c(OC)cc23)cc1OC
TGI (KM12 colon): > 100 µM | TGI (OVCAR-8 ovarian): > 100 µM | TGI (SNB-19 CNS): > 100 µM | TGI (NCI-H522 lung): > 100 µM | TGI (UACC-257 melanoma): > 100 µM | TGI (SK-MEL-5 melanoma): > 100 µM | TGI (NCI-H226 lung): 82 µM | TGI (RPMI-8226 leukemia): > 100 µM

COc1ccc(C23C(=O)c4ccccc4N2O[C@H]2C(=O)N(c4ccccc4)C(=O)[C@H]23)cc1 (some centres not stated)
TGI (KM12 colon): > 100 µM | TGI (OVCAR-8 ovarian): > 100 µM | TGI (SNB-19 CNS): > 100 µM | TGI (SK-MEL-2 melanoma): > 100 µM | TGI (NCI-H522 lung): 87.3 µM | TGI (UACC-257 melanoma): > 100 µM | TGI (SK-MEL-5 melanoma): > 100 µM | TGI (NCI-H226 lung): > 100 µM | TGI (RPMI-8226 leukemia): > 100 µM

CCOC(=O)C12CCCC1(O)N(NC(=O)OC(C)(C)C)C(C)=C2C(=O)OC (configuration not stated)
TGI (KM12 colon): > 100 µM | TGI (OVCAR-8 ovarian): > 100 µM | TGI (SNB-19 CNS): > 100 µM | TGI (SK-MEL-2 melanoma): > 100 µM | TGI (NCI-H522 lung): > 100 µM | TGI (UACC-257 melanoma): > 100 µM | TGI (NCI-H226 lung): > 100 µM | TGI (RPMI-8226 leukemia): > 100 µM

COc1ccc(C(=S)N2CCN(c3cccc(C)c3)CC2)cc1OC
GI50 (KM12 colon): 2.82 µM | TGI (KM12 colon): > 100 µM | GI50 (OVCAR-8 ovarian): 8.47 µM | TGI (OVCAR-8 ovarian): > 100 µM | GI50 (SNB-19 CNS): 6.61 µM | TGI (SNB-19 CNS): > 100 µM | GI50 (SK-MEL-2 melanoma): 47.5 µM | TGI (SK-MEL-2 melanoma): > 100 µM | GI50 (UACC-257 melanoma): 55.4 µM | TGI (UACC-257 melanoma): > 100 µM | GI50 (SK-MEL-5 melanoma): 4.55 µM | TGI (SK-MEL-5 melanoma): > 100 µM | GI50 (DU-145 prostate): 4.59 µM | TGI (DU-145 prostate): > 100 µM | GI50 (NCI-H226 lung): > 100 µM | TGI (NCI-H226 lung): > 100 µM
